According to ChEMBL document CHEMBL1134829, “7-Alkyl- and 7-cycloalkyl-5-aryl-pyrrolo[2,3-d]pyrimidines--potent inhibitors of the tyrosine kinase c-Src” (Bioorg Med Chem Lett, 2001):

How the values were obtained:
[1] = target: Epidermal growth factor receptor (Homo sapiens, UniProt P00533); test: Inhibition of Epidermal growth factor receptor (EGF-R) tyrosine kinase activity
[2] = target: T1, Proto-oncogene tyrosine-protein kinase Src (Gallus gallus, UniProt P00523); test: Inhibition of p60 c-Src tyrosine kinase mediated phosphorylation of Fak in IC8.1 fibroblasts; type: functional
[3] = target: Tyrosine-protein kinase ABL (Homo sapiens, UniProt P00519+P42684)
Description: Inhibition of v-Abl tyrosine kinase activity

[4] = target: T1, Proto-oncogene tyrosine-protein kinase Src; test: Inhibition of p60 c-Src tyrosine kinase activity
[5] = target: T1, Proto-oncogene tyrosine-protein kinase Src; test: Inhibition of p60 c-Src tyrosine kinase at 830 ng/mL

Sequence of Epidermal growth factor receptor (P00533 whole entry): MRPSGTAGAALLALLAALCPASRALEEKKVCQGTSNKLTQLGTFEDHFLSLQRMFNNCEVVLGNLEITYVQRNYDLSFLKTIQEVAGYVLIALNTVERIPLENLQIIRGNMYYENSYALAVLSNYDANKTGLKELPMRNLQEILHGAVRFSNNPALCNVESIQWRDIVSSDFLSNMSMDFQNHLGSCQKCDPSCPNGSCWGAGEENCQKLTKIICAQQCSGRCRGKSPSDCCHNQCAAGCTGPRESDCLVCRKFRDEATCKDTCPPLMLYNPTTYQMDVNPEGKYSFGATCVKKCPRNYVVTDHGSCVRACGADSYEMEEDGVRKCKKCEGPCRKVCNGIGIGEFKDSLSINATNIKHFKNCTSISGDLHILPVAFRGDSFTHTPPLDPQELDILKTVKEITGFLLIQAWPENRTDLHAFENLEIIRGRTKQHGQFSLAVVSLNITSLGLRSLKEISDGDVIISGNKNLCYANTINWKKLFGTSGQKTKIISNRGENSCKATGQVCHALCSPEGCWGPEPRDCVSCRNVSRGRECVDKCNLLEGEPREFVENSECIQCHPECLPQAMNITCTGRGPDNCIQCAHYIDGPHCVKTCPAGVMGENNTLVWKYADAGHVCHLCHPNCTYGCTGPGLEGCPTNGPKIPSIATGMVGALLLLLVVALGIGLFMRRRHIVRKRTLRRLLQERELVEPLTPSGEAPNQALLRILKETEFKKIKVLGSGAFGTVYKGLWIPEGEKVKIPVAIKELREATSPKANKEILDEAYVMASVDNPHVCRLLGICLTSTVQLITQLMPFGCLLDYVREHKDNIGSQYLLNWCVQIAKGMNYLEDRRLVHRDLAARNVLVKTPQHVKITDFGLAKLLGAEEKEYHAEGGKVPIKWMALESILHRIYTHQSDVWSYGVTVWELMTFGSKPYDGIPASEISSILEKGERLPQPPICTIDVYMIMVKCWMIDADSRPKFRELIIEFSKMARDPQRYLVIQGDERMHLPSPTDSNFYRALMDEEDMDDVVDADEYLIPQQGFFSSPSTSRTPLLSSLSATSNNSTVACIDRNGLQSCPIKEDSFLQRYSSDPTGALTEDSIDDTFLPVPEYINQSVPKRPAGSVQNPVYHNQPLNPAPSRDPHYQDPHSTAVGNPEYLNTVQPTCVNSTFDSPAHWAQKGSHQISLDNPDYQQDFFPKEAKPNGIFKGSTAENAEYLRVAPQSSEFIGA

| IC50 [1] [nM] | IC50 [2] [nM] | IC50 [3] [nM] | IC50 [4] [nM] | IC50 [5] [nM] | SMILES |
| --- | --- | --- | --- | --- | --- |
| 500 | 1800 | 140 | 140 | – | Nc1ncnc2c1c(-c1ccccc1)cn2C1CCCC1 |
| 790 | 200 | 40 | 50 | – | Nc1ncnc2c1c(-c1ccccc1)cn2C1CCC(O)C1 (stereo unspecified) |
| 570 | 1200 | 260 | 80 | – | COc1ccc(-c2cn(C3CCCC3)c3ncnc(N)c23)cc1 |
| 730 | 1000 | 90 | 110 | – | Nc1ncnc2c1c(-c1ccccc1)cn2C1CCC1 |
| – | – | – | 4000 | – | Nc1ncnc2c1c(-c1ccccc1)cn2C(CO)CCc1ccccc1 (stereo unspecified) |
| 440 | – | 10500 | 600 | – | Nc1ncnc2c1c(-c1ccccc1)cn2C(CO)Cc1ccccc1 (stereo unspecified) |
| 14400 | > 5000 | > 10000 | > 1000 | – | COc1ccc(CC(CO)n2cc(-c3ccccc3)c3c(N)ncnc32)cc1 (stereo unspecified) |
| 600 | 1500 | 85 | 10 | – | Nc1ncnc2c1c(-c1ccc(O)cc1)cn2C1CCC1 |
| 2820 | 4000 | 390 | 20 | – | Nc1ncnc2c1c(-c1ccccc1)cn2C1CC(O)C1 (stereo unspecified) |
| – | 3000 | – | 200 | – | COc1ccc(-c2cn(C3CCC3)c3ncnc(N)c23)cc1 |
| 330 | 4000 | 230 | 20 | – | COc1cccc(-c2cn(C3CC(C(=O)NCCO)C3)c3ncnc(N)c23)c1 (stereo unspecified) |
| 450 | 600 | 50 | 40 | – | COc1cccc(-c2cn(C3CCC3)c3ncnc(N)c23)c1 |
| – | – | – | – | 4900 | Nc1ncnc2c1c(-c1ccccc1)cn2[C@H](CO)c1ccccc1 |
| 250 | 300 | 110 | 20 | – | Nc1ncnc2c1c(-c1ccc(O)cc1)cn2C1CCCC1 |
| 13200 | – | 2200 | 1900 | – | Nc1ncnc2c1c(-c1ccccc1)cn2C(CO)Cc1ccc(O)cc1 (stereo unspecified) |
| – | > 5000 | – | 480 | – | Nc1ncnc2c1c(-c1ccccc1)cn2[C@@H](CO)c1ccccc1 |
| 80 | 200 | – | 1 | – | Nc1ncnc2c1c(-c1cccc(O)c1)cn2C1CCCC1 |
| 9700 | – | – | 1000 | – | COc1ccc(CC(CO)n2cc(-c3cccc(OC)c3)c3c(N)ncnc32)cc1 (stereo unspecified) |
| – | 2000 | 40 | 30 | – | COc1cccc(-c2cn(C3CC(CO)C3)c3ncnc(N)c23)c1 (stereo unspecified) |
| 460 | 170 | 170 | 2 | – | COc1cccc(-c2cn(C3CCCC3)c3ncnc(N)c23)c1 |
| 490 | 300 | 420 | 20 | – | COc1cccc(-c2cn(C3CC(CNCCO)C3)c3ncnc(N)c23)c1 (stereo unspecified) |

| SMILES | IC50 [1] [nM] | IC50 [2] [nM] | IC50 [3] [nM] | IC50 [4] [nM] | IC50 [5] [nM] |
| --- | --- | --- | --- | --- | --- |
| Nc1ncnc2c1c(-c1cccc(O)c1)cn2C1CCC1 | 300 | 100 | 5 | 4 | – |
| COc1ccc(CC(CO)n2cc(-c3cccc(O)c3)c3c(N)ncnc32)cc1 (stereo unspecified) | 3400 | 400 | 340 | 42 | – |
